This is an account of results in patent US9630957B2, “2,3-butanediamide epoxide compound and preparation method and use thereof” (Institute of Pharmacology and Toxicology Academy of …, priority 2014, dated 2017).

In brackets after ≈: the same amount, converted by molar mass. Where only a bound is given, the exact number is not on record here.

For data set [1], the system named is Vero cells. The data set can be described thus: Cytotoxicity of the compounds for Vero cells (CPE observation, TC50). The data set is classed as cell-based. As to conditions: no virus. The method, then: (§1) 2. Sample treatment: the compounds of the present invention are dissolved in DMSO or diluent to prepare stock solution which is stored at −20° C. The stock solution is formulated to suitable incipient concentration with culture solution immediately before use, and then 3-fold diluted with the culture solution, 8 degrees of dilution each.
(§2) 4. Test Method: Vero cells are seeded into a 96-well culture plate, at 5% CO2, and cultured at 37° C. for 16 hours. The Vero cells are added with different dilutions of drugs, and the degree of cytopathic effect (CPE) in each group is observed. The half toxic concentration (TC50) of each sample for Vero cells is calculated. Vero cells are added with 100TCID50 enterovirus EV71 respectively, and the virus solution is discarded after adsorption at 37° C. for 1 hour, and then drugs with various degrees of dilution are added respectively. Virus control and cell control are set and incubated at 37° C. The degree of cytopathic effect (CPE) in each group is observed when the degree of cytopathic effect (CPE) of virus control group reaches 4+. The half inhibitory concentration (IC50) of each sample for enterovirus EV71 are calculated. Selectivity Index (SI) is calculated according to the following equation: SI=TC50/IC50.

For data set [2], the system named is enterovirus EV71 (BrCr strain). In words: Activity screening for anti-enterovirus EV71: inhibition of cytopathic effect in Vero cells. As to conditions: for IC50: 100TCID50, Vero cells, CPE read when virus control reaches 4+, read-out: IC50 (half inhibitory concentration for enterovirus EV71). The data set is classed as cell-based. The method, then: Test item: Activity screening of the compounds for anti-enterovirus EV71
Test principle: Vero cells are used as viral host. The inhibition of the compound of the invention on the degree of cytopathic effect of Vero cells caused by enterovirus virus EV71 is determined.
1. Virus strain: enterovirus EV71 (BrCr, American Type Culture Collection, ATCC)
as §1
3. Positive control drug: Pirodavir (LGM Pharma), which is a broad-spectrum anti-viral inhibitor.
as §2
(Damage to the host cells serves as the signal in cytopathic effect assays.)

A word on the melting point: it is the temperature, or range, at which the solid turns liquid. As to `COc1ccc(NC(=O)[C@H]2O[C@@H]2C(=O)N(Cc2ccc(F)cc2)c2ccc(C(=O)Nc3nc4ccccc4s3)cc2)cc1` [Compound 20, (2S,3S)—N^2-(4-(benzo[d]thiazol-2-ylcarbamoyl)phenyl)-N^3-(4-methoxyphenyl)-N^2-(4-fluorobenzyl)-2,3-epoxybutanediamide], the melting point lay within 200.1 to 201.2 °C. The “TC50 (half toxic concentration for Vero cells)” value in data set [1] was determined as 13.74 µg/mL. In addition, in data set [2], the IC50 is more than 2.47 µg/mL.

`COc1cccc(NC(=O)[C@H]2O[C@@H]2C(=O)N(Cc2ccc(F)cc2)c2ccc(C(=O)Nc3nc4ccccc4s3)cc2)c1` [Compound 21, (2S,3S)—N^2-(4-(benzo[d]thiazol-2-ylcarbamoyl)phenyl)-N^3-(3-methoxyphenyl)-N^2-(4-fluorobenzyl)-2,3-epoxybutanediamide] had a melting point of 223.1 to 224.1 °C. The “TC50 (half toxic concentration for Vero cells)” value in data set [1] worked out at 1.19 µg/mL. Besides, the IC50 in data set [2] is more than 0.27 µg/mL.

In turn, `O=C(Nc1nc2ccccc2s1)c1ccc(N(Cc2ccc(F)cc2)C(=O)[C@H]2O[C@@H]2C(=O)Nc2ccc(F)c(F)c2)cc1` [Compound 22, (2S,3S)—N^2-(4-(benzo[d]thiazol-2-ylcarbamoyl)phenyl)-N^3-(3,4-difluorophenyl)-N^2-(4-fluorobenzyl)-2,3-epoxybutanediamide] had a melting point of 219.2 to 219.7 °C. Moreover, the “TC50 (half toxic concentration for Vero cells)” value in data set [1] stood at 1.19 µg/mL. The IC50 in data set [2] is more than 0.27 µg/mL.

`O=C(Nc1nc2ccccc2s1)c1ccc(N(Cc2ccc(F)cc2)C(=O)[C@H]2O[C@@H]2C(=O)Nc2cccc(Cl)c2)cc1` [Compound 23, (2S,3S)—N^2-(4-(benzo[d]thiazol-2-ylcarbamoyl)phenyl)-N^3-(3-chlorophenyl)-N^2-(4-fluorobenzyl)-2,3-epoxybutanediamide] came in with a melting point of 209.8 to 210.3 °C. In data set [1], the “TC50 (half toxic concentration for Vero cells)” value amounted to 1.43 µg/mL. Moreover, the IC50 in data set [2] is more than 0.82 µg/mL.

Turning to `O=C(Nc1nc2ccccc2s1)c1ccc(N(Cc2ccc(F)cc2)C(=O)[C@H]2O[C@@H]2C(=O)Nc2ccc([N+](=O)[O-])cc2)cc1` [Compound 24, (2S,3S)—N^2-(4-(benzo[d]thiazol-2-ylcarbamoyl)phenyl)-N^3-(4-nitrophenyl)-N^2-(4-fluorobenzyl)-2,3-epoxybutanediamide], the melting point is 203.5 to 204.2 °C. Besides, the “TC50 (half toxic concentration for Vero cells)” value in data set [1] was found to be 1.43 µg/mL. Moreover, in data set [2], the IC50 is more than 0.82 µg/mL.

As to `O=C(Nc1nc2ccccc2s1)c1ccc(N(Cc2ccc(F)cc2)C(=O)[C@H]2O[C@@H]2C(=O)Nc2cccc(Cl)c2Cl)cc1` [Compound 25, (2S,3S)—N^2-(4-(benzo[d]thiazol-2-ylcarbamoyl)phenyl)-N^3-(2,3-dichlorophenyl)-N^2-(4-fluorobenzyl)-2,3-epoxybutanediamide], the melting point was 210.2 to 211.1 °C. For the same molecule, the “TC50 (half toxic concentration for Vero cells)” value in data set [1] came out at 0.82 µg/mL. Further, the IC50 in data set [2] is more than 0.27 µg/mL.

On to `O=C(Nc1nc2ccccc2s1)c1ccc(N(Cc2ccc(F)cc2)C(=O)[C@H]2O[C@@H]2C(=O)Nc2ccc(Cl)cc2Cl)cc1` [Compound 26, (2S,3S)—N^2-(4-(benzo[d]thiazol-2-ylcarbamoyl)phenyl)-N^3-(2,4-dichlorophenyl)-N^2-(4-fluorobenzyl)-2,3-epoxybutanediamide], for which the melting point lay within 206.7 to 207.5 °C. Also, the “TC50 (half toxic concentration for Vero cells)” value in data set [1] amounted to 1.43 µg/mL. Further, the IC50 in data set [2] is more than 0.82 µg/mL.

`O=C(Nc1nc2ccccc2s1)c1ccc(N(Cc2ccc(F)cc2)C(=O)[C@H]2O[C@@H]2C(=O)Nc2ccccc2Br)cc1` [Compound 27, (2S,3S)—N^2-(4-(benzo[d]thiazol-2-ylcarbamoyl)phenyl)-N^3-(2-bromophenyl)-N^2-(4-fluorobenzyl)-2,3-epoxybutanediamide] showed a melting point of 179.2 to 180.1 °C. For the same molecule, the “TC50 (half toxic concentration for Vero cells)” value in data set [1] amounted to 0.82 µg/mL. The IC50 in data set [2] was more than 0.27 µg/mL.

For `Cc1c(Cl)cccc1NC(=O)[C@H]1O[C@@H]1C(=O)N(Cc1ccc(F)cc1)c1ccc(C(=O)Nc2nc3ccccc3s2)cc1` [Compound 28, (2S,3S)—N^2-(4-(benzo[d]thiazol-2-ylcarbamoyl)phenyl)-N^3-(2-methyl-3-chlorophenyl)-N^2-(4-fluorobenzyl)-2,3-epoxybutanediamide], the melting point was 210.3 to 211.1 °C. In addition, the “TC50 (half toxic concentration for Vero cells)” value in data set [1] was 0.82 µg/mL. Further, the IC50 in data set [2] is more than 0.27 µg/mL.

For `O=C(Nc1nc2ccccc2s1)c1ccc(N(Cc2ccc(F)cc2)C(=O)[C@H]2O[C@@H]2C(=O)Nc2ccc(F)cc2)cc1` [Compound 29, (2S,3S)—N^2-(4-(benzo[d]thiazol-2-ylcarbamoyl)phenyl)-N^3-(4-fluorophenyl)-N^2-(4-fluorobenzyl)-2,3-epoxybutanediamide], the melting point lay within 199.7 to 200.5 °C. In addition, in data set [1], the “TC50 (half toxic concentration for Vero cells)” value stood at 1.43 µg/mL. In addition, in data set [2], the IC50 was more than 0.82 µg/mL.

In turn, `O=C(Nc1nc2ccccc2s1)c1ccc(N(Cc2ccc(F)cc2)C(=O)[C@H]2O[C@@H]2C(=O)Nc2cccc(F)c2)cc1` [Compound 30, (2S,3S)—N^2-(4-(benzo[d]thiazol-2-ylcarbamoyl)phenyl)-N^3-(3-fluorophenyl)-N^2-(4-fluorobenzyl)-2,3-epoxybutanediamide] gave a melting point of 202.4 to 203.1 °C. Moreover, the “TC50 (half toxic concentration for Vero cells)” value in data set [1] came to 1.43 µg/mL. In data set [2], the IC50 was 0.36 µg/mL (≈ 0.616 µM). Moreover, the “SI (Selectivity Index = TC50/IC50)” value in data set [2] (Vero cells) came to 3.97.

Molecule `O=C(Nc1nc2ccccc2s1)c1ccc(N(Cc2ccc(F)cc2)C(=O)[C@H]2O[C@@H]2C(=O)Nc2ccc(Cl)c(Cl)c2)cc1` [Compound 31, (2S,3S)—N^2-(4-(benzo[d]thiazol-2-ylcarbamoyl)phenyl)-N^3-(3,4-dichlorophenyl)-N^2-(4-fluorobenzyl)-2,3-epoxybutanediamide] yielded a melting point of 218.2 to 219.1 °C. Moreover, the “TC50 (half toxic concentration for Vero cells)” value in data set [1] stood at 1.43 µg/mL. The IC50 in data set [2] is more than 0.82 µg/mL.

Consider `O=C(Nc1nc2ccccc2s1)c1ccc(N(Cc2ccc(F)cc2)C(=O)[C@H]2O[C@@H]2C(=O)Nc2nccs2)cc1` [Compound 32, (2S,3S)—N^2-(4-(benzo[d]thiazol-2-ylcarbamoyl)phenyl)-N^2-(4-fluorobenzyl)-N^3-(2-thiazolyl)-2,3-epoxybutanediamide], for which the melting point is 216.4 to 217.2 °C. Further, the “TC50 (half toxic concentration for Vero cells)” value in data set [1] worked out at 1.19 µg/mL. Also, the IC50 in data set [2] is more than 0.27 µg/mL.

`CCOC(=O)c1csc(NC(=O)[C@H]2O[C@@H]2C(=O)N(Cc2ccc(F)cc2)c2ccc(C(=O)Nc3nc4ccccc4s3)cc2)n1` [Compound 33, (2S,3S)—N^2-(4-(benzo[d]thiazol-2-ylcarbamoyl)phenyl)-N^2-(4-fluorobenzyl)-N^3-(4-ethoxycarbonylthiazol-2-yl)-2,3-epoxybutanediamide] showed a melting point of 220.5 to 221.6 °C. Besides, the “TC50 (half toxic concentration for Vero cells)” value in data set [1] came to 1.19 µg/mL. In addition, the IC50 in data set [2] was more than 0.27 µg/mL.

As for `COC(=O)c1csc(NC(=O)[C@H]2O[C@@H]2C(=O)N(Cc2ccc(F)cc2)c2ccc(C(=O)Nc3nc4ccccc4s3)cc2)n1` [Compound 34, (2S,3S)—N^2-(4-(benzo[d]thiazol-2-ylcarbamoyl)phenyl)-N^2-(4-fluorobenzyl)-N^3-(4-methoxycarbonylthiazol-2-yl)-2,3-epoxybutanediamide], the melting point fell in the range of 196.3 to 197.1 °C. Further, in data set [1], the “TC50 (half toxic concentration for Vero cells)” value turned out to be 1.43 µg/mL. In addition, the IC50 in data set [2] was more than 0.82 µg/mL.

Consider `CCOC(=O)c1cnc(NC(=O)[C@H]2O[C@@H]2C(=O)N(Cc2ccc(F)cc2)c2ccc(C(=O)Nc3nc4ccccc4s3)cc2)s1` [Compound 35, (2S,3S)—N^2-(4-(benzo[d]thiazol-2-ylcarbamoyl)phenyl)-N^2-(4-fluorobenzyl)-N^3-(5-ethoxycarbonylthiazol-2-yl)-2,3-epoxybutanediamide], for which the melting point was 218.6 to 219.2 °C. Also, in data set [1], the “TC50 (half toxic concentration for Vero cells)” value was found to be 4.28 µg/mL. For the same molecule, the IC50 in data set [2] was more than 2.47 µg/mL.

`COC(=O)c1cnc(NC(=O)[C@H]2O[C@@H]2C(=O)N(Cc2ccc(F)cc2)c2ccc(C(=O)Nc3nc4ccccc4s3)cc2)s1` [Compound 36, (2S,3S)—N^2-(4-(benzo[d]thiazol-2-ylcarbamoyl)phenyl)-N^2-(4-fluorobenzyl)-N^3-(5-methoxycarbonylthiazol-2-yl)-2,3-epoxybutanediamide]: the melting point fell in the range of 219.8 to 220.2 °C. Also, the “TC50 (half toxic concentration for Vero cells)” value in data set [1] was 3.56 µg/mL. Also, in data set [2], the IC50 is more than 0.82 µg/mL.

In turn, `COc1ccccc1NC(=O)[C@H]1O[C@@H]1C(=O)N(Cc1ccc(F)cc1)c1ccc(C(=O)Nc2nc3ccccc3s2)cc1` [Compound 37, (2S,3S)—N^2-(4-(benzo[d]thiazol-2-ylcarbamoyl)phenyl)-N^3-(2-methoxyphenyl)-N^2-(4-fluorobenzyl)-2,3-epoxybutanediamide] had a melting point of 189.2 to 190 °C. The “TC50 (half toxic concentration for Vero cells)” value in data set [1] amounted to 0.82 µg/mL. For the same molecule, the IC50 in data set [2] is more than 0.27 µg/mL.
